From publication PMC6891695, “Evaluation of Antifouling Potential and Ecotoxicity of Secondary Metabolites Derived from Red Algae of the Genus Laurencia” (Marine Drugs, 2019)
Where two headings read alike, the source gives them in different places.

Assays:
RTL-W1 cell line = assay: RTL-W1 alamar blue/resazurin assay (mitochondria function); type: cell-based, rainbow trout; conditions: for EC50: Oncorhynchus mykiss, RTL-W1, Alamar blue/Resazurin assay, 48 h incubation; for effect on general metabolism and mitochondrial activity (in words): RTL-W1
Method: The RTL-W1 cell line, a non-transformed rainbow trout liver cell line that has already been used in environmental toxicity assays, was established from the normal liver of an adult rainbow trout by proteolytic dissociation of liver fragments. RTL-W1 cells were cultured in 75 cm^2 culture flasks (Orange Scientific, Braine l’Alleud, Belgium) at 20 °C in Leibovitz’s (L-15, Sigma-Aldrich, St. Louis, MO, USA) medium supplemented with 5% fetal bovine serum (FBS) and 1% L-glutamine in CO2-free incubator. For the cytotoxicity assays of the selected secondary metabolites, cells were seeded at 3 × 10^4 cells/well density in a 96-well tissue culture plate (Orange Scientific Braine l’Alleud, Belgium) in 100 μL culture medium/well for 2 days before the assays. Three different cytotoxicity protocols were used: 1) The alamar blue/resazurin fluorometric/colorimetric cell viability assay to assess the metabolic capacity and mitochondrial function; 2) the crystal violet cell viability assay for indirect quantification of cell death; and 3) the neutral red cell proliferation assay for lysosomal activity. Two days after seeding the cells, cultures were incubated with various concentrations of selected secondary metabolites at 20 °C for 48 h before cell viability was assessed. […] For the alamar blue/resazurin fluorometric/colorimetric cell viability assay, 100 μL of 3 μg/100 μL Resazurin sodium salt (Sigma-Aldrich, St. Louis, MO, USA) in incubation medium was added on each well and incubated under sterile conditions at 20 °C for 4 h. For the crystal violet cell viability assay, after 48 h of incubation with each secondary metabolite, the culture medium was aspirated and cells were washed twice with sterile dd. H2O. The final wash was aspirated and 50 μL of 0.5% (w/v) crystal violet staining solution (20% methanol in dd. H2O) was added to each well followed by incubation for 20 min at room temperature on a bench rocker with a frequency of 20 oscillations per minute. The staining solution was then aspirated and the plate was washed four times with sterile dd. H2O and left to air-dry without its lid for 3 h at room temperature. Next, 200 μL of methanol was added to each well, and the plate was incubated with its lid on for 20 min at room temperature on a bench rocker with a frequency of 20 oscillations per minute. For the neutral red cell proliferation assay, after 48 h of incubation with each secondary metabolite, the culture medium was aspirated and cells were washed twice with phosphate-buffered saline (PBS, pH 7.4). Cells were then incubated with 100 μL of a 40 μg/mL neutral red staining solution in culture medium at 20 °C for 4 h followed by two washes with 150 μL of PBS. Then cells were incubated with 100 μL neutral red destain solution (50% ethanol, 49% dd. H2O, 1% glacial acetic acid) for 10 min on a bench rocker with a frequency of 80 oscillations per minute. Absorbance was read at 570 nm for alamar blue/resazurin and crystal violet and at 540 nm for neutral red using a Tecan infinite M200 Pro microplate reader. For each assay and each secondary metabolite, a minimum of four independent dose–response experiments with three replicates each were carried out. Calculations were carried out using detailed formulas (AbCam, Cambridge, UK, and results were analyzed with GraphPad Prism v.6.
(§1) For EC50 or IC50 (the concentration that results in 50% stimulation or inhibition relative to the control) calculations in GraphPad Prism v.6, all data were fitted to the curve according to the following models for normalized response: Y = 100/(1 + 10^((X − LogIC50))) or Y = 100/(1 + 10^((LogEC50 − X))) depending on the trend of the curve.

cyprids of A. amphitrite = assay: whole plant or invertebrate; type: in vivo; conditions: for EC50 / IC50: Amphibalanus amphitrite; for EC50: read-out: EC50 No Metamorphosis; for EC50 values for settlement inhibition of barnacle cyprids (in words): consistently, 24-72 h
Method: (§2) Adult A. amphitrite (Cirripedia, Balanidae) were collected from boat docks at Port Mikrolimano and Floisvos, Athens, Greece. Animals were cleaned of epibionts with a small hard brush and meticulously identified as individuals of the species. Adult barnacles were kept in separate aerated glass tanks (20 L) containing 200-μm filtered natural seawater at 27 °C and a 12:12 L:D photoperiod. Tanks were fed with 24-h hatched Artemia sp. (Branchiopoda) nauplii and Tetraselmis suecica (Chlorodendrophyceae) and Skeletonema costatum (Bacillariophyceae) algae each day and seawater was changed on alternate days. Upon stress to induce oviposition (exposure to air for 24 h or immersion in fresh water for 5 h), adults were returned to seawater for larval release. Hatched nauplii were attracted to a point light source, collected and placed into a beaker containing 2 or 3 L of 0.7 μm GF/F (GE Healthcare, Little Chalfont, UK )-filtered natural seawater at a density of approximately 1–2 nauplii/mL with gentle aeration. Nauplii were maintained at 27 °C at a 12:12 L:D photoperiod on a diet of C. gracilis (Bacillariophyceae) provided at a density of 2 × 10^5 cells/mL. Cultured in these conditions, nauplii metamorphosed to cyprids in 5 days. Aliquots of these cyprids were collected with a wide-mouthed Pasteur pipette and aged at 4 °C for 1 day prior to use in settlement assays. Only batches of cyprids that were active and had numerous oil cells, representing energy reserves, were used in settlement assays.
(§3) Assays were conducted by adding 10 cyprids into individual wells of a 24-well polystyrene sterile microplate (Orange Scientific, Braine l’Alleud, Belgium) with 2 mL of artificial sea water (ASW) (25‰) and various concentrations of the chemical compounds as listed in Table 1. These experiments were repeated at least three times with four replicates for each concentration of any given compound (n = 120 cyprids/compound). Stock solutions for all compounds were prepared in methanol (Scharlab, Barcelona, Spain) and serial dilutions were prepared in 0.7 μm (GF/F, GE Healthcare, Little Chalfont, UK), filtered sea water to have a final concentration of 2.5% methanol in each assay solution. Plates were covered and sealed with Parafilm® to avoid evaporation and incubated at 25 °C away from any light source and examined after 24, 48 and 72 h. Each animal was inspected under a stereomicroscope and its condition was recorded. […] Both permanently attached and metamorphosed individuals were counted as settled or juveniles. The remainder were counted as ‘no metamorphosis’, i.e. animals that responded to light touch and were still cyprids at the end of the experiments with no overt signs of metamorphosis.
as §1

in vivo = type: in vivo; conditions: Amphibalanus amphitrite, in vivo, read-out: LC50 Mortality; for LC50 at 24 h: 24 h exposure; for LC50 at 48 h: 48 h exposure; for LC50 at 72 h: 72 h exposure
Method: as §2, §3, §1

[1] = 24 h, read-out: IC50 Settlement
[2] = 48 h, read-out: IC50 Settlement
[3] = 72 h, read-out: IC50 Settlement

SMILES | EC50 (RTL-W1 cell line) | EC50 (cyprids of A. amphitrite; 24 h) | IC50 (cyprids of A. amphitrite; [1]) | EC50 (cyprids of A. amphitrite; 48 h) | IC50 (cyprids of A. amphitrite; [2]) | EC50 (cyprids of A. amphitrite; 72 h) | IC50 (cyprids of A. amphitrite; [3]) | animals not progressing to metamorphosis (cyprids of A. amphitrite; in vivo) | LC50 at 24 h (in vivo) | LC50 at 48 h (in vivo) | LC50 at 72 h (in vivo) | effect on general metabolism and mitochondrial activity (in words) (RTL-W1 cell line) | EC50 values for settlement inhibition of barnacle cyprids (in words) (cyprids of A. amphitrite) | IC50 (cyprids of A. amphitrite; read-out: IC50 settlement-inhibiting activity)
CC(C)[C@@H]1CC=C[C@H]2[C@H]3[C@](C)(CC[C@]12CBr)[C@@H](Br)CC[C@@]3(C)O [Bromosphaerol, reference compound] | > 1000 µM | 0.45 µM | 0.58 µM | 0.267 µM | 0.624 µM | 0.561 µM | 0.836 µM | large percentage of animals not progressing to metamorphosis | 17.9 µM | 4.57 µM | 2.5 µM |  |  | 
C=CC(C)(O)CC[C@@H]1C(=C)CC[C@@H](Br)[C@@]1(C)CCC1OC1(C)C (stereo partly drawn) [Compound 18] | > 1000 µM | 45.4 µM | 0.046 µM | 50.4 µM | 0.076 µM | 48.5 µM | 0.316 µM |  | 26.2 µM | 26.3 µM | 20.3 µM | none of the three tested metabolites had an effect | sub-micromolar | 
CC1=C2CC[C@@](C)(Cl)[C@@H](Br)C[C@]2(C)[C@@H](C)[C@@H](Br)[C@@H]1O [Compound 9, perforenol] | > 1000 µM | 38.2 µM | 0.52 µM | 47.4 µM | 0.66 µM | 57.8 µM | 0.5 µM |  | 76.2 µM | 116 µM | 49.1 µM | none of the three tested metabolites had an effect | sub-micromolar | ~0.5 µM
C=C(C1CCC(C)(O)C(Br)C1)C1C(Br)C2C(CCC2(C)O)C1(C)C (stereo not drawn) [Compound 19, neorogioldiol] | > 1000 µM | 52.8 µM | 0.4 µM | 57.9 µM | 0.915 µM | 70.4 µM | 0.756 µM |  | 413 µM | 366 µM | 573 µM | none of the three tested metabolites had an effect | sub-micromolar | 
